According to PMC10175918 (Communications Biology, 2023):

Columns and labels:
Assay in all cases: TGFα-shedding assay-based GPCR screening with chimeric Gα subunit proteins
Type in all cases: cell-based
[1] = biological target: T1, 348 GPCRs (Homo sapiens, UniProt P34972); details: CB2 (cannabinoid receptor 2); 10µM, Favipiravir 100μM; read-out: % GPCR activation compared to TPA
T1 construct: expressed in transfected cells; host or cells: HEK293A

[2] = biological target: T2, 348 GPCRs (Homo sapiens, UniProt P47900); details: GPCR P2Y1 (purinergic receptor P2Y, G-protein coupled, 1)
T2 construct: expressed in transfected cells; host or cells: HEK293A
T2 sequence (P47900 whole entry): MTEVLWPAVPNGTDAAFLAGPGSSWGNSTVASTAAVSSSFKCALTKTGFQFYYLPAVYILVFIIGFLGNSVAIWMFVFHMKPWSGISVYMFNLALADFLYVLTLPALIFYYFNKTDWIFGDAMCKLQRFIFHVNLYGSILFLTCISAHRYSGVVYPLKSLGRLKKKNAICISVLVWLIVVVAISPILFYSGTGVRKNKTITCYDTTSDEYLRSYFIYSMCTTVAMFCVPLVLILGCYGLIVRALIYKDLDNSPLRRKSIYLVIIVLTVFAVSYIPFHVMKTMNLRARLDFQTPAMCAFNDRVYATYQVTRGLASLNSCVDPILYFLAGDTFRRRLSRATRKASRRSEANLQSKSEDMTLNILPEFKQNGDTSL

[3] = biological target: T3, 348 GPCRs (Homo sapiens, UniProt P51582); details: GPCR P2Y4 (pyrimidinergic receptor P2Y, G-protein coupled, 4), read-out: % GPCR activation compared to TPA
T3 construct: expressed in transfected cells; host or cells: HEK293A
T3 sequence (P51582 whole entry): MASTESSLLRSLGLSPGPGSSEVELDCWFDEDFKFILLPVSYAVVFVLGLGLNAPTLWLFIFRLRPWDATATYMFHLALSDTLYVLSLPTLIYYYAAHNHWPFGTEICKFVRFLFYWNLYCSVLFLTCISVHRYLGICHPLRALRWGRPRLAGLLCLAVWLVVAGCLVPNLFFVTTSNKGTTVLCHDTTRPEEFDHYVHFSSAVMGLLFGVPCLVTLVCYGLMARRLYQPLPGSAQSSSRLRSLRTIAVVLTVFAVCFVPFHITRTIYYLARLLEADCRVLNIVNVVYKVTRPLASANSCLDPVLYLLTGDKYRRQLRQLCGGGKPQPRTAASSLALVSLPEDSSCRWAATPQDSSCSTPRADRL

[4] = biological target: T4, 348 GPCRs (Homo sapiens, UniProt Q8IZP9); details: GPCR GPR64 (G protein-coupled receptor 64), read-out: % GPCR activation compared to TPA
T4 construct: expressed in transfected cells; host or cells: HEK293A
T4 sequence (Q8IZP9 38-1017): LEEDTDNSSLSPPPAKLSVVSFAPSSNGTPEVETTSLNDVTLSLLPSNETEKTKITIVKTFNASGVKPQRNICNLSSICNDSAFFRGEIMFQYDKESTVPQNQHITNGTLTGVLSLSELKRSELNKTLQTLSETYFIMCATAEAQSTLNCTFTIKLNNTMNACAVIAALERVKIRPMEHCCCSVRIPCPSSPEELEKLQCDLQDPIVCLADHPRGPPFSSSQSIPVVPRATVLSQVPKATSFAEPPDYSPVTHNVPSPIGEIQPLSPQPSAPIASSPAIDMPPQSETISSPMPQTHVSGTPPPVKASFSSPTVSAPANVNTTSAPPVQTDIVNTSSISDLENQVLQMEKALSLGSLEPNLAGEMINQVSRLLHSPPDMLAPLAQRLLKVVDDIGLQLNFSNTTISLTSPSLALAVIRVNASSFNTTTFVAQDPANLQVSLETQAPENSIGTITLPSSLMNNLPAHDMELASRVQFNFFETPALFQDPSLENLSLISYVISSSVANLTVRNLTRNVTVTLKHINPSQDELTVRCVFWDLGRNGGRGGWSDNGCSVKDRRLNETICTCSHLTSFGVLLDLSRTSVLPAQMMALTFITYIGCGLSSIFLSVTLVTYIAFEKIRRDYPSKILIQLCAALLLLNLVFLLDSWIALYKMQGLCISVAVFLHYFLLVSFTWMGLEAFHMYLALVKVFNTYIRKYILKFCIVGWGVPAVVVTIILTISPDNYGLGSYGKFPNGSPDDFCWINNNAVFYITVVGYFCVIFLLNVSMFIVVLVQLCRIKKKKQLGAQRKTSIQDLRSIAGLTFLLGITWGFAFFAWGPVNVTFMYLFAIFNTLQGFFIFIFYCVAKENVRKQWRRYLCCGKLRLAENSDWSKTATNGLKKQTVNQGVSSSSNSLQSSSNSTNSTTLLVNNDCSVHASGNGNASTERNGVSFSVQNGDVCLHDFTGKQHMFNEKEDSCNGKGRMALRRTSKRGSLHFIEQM

[5] = biological target: T5, 348 GPCRs (Homo sapiens, UniProt Q8NFJ5); details: GPRC5A (G protein-coupled receptor class C group 5 member A); 10µM, Favipiravir 100μM; read-out: % GPCR activation compared to TPA
T5 construct: expressed in transfected cells; host or cells: HEK293A
T5 sequence (Q8NFJ5 whole entry): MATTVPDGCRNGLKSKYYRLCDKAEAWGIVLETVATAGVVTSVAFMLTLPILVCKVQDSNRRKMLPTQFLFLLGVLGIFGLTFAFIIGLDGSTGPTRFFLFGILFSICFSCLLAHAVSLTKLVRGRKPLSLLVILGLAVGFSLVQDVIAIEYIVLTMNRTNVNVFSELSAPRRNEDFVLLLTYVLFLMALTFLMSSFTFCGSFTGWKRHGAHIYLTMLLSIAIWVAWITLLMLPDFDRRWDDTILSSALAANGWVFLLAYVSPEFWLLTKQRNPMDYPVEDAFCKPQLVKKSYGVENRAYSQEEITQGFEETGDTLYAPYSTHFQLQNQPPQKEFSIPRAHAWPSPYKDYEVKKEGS

[6] = biological target: T6, 348 GPCRs (Homo sapiens, UniProt Q9NS67); details: GPR27 (G Protein-Coupled Receptor 27); 10µM, Favipiravir 100μM; read-out: % GPCR activation compared to TPA
T6 construct: expressed in transfected cells; host or cells: HEK293A
T6 sequence (Q9NS67 whole entry): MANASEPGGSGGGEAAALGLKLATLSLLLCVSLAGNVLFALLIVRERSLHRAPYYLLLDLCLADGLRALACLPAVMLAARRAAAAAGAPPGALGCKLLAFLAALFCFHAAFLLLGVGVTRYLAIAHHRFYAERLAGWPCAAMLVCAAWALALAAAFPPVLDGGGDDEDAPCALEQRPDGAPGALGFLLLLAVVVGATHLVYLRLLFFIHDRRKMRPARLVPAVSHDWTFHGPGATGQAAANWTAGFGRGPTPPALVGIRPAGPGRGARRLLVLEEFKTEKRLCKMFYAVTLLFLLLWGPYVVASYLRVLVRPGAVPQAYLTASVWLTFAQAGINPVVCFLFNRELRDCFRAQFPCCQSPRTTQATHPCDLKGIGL

[7] = biological target: T7, 348 GPCRs (Homo sapiens, UniProt P49286); details: MT2R (melatonin receptor type 1B); 10µM, Favipiravir 100μM; read-out: % GPCR activation compared to TPA
T7 construct: expressed in transfected cells; host or cells: HEK293A
T7 sequence (P49286 1-362): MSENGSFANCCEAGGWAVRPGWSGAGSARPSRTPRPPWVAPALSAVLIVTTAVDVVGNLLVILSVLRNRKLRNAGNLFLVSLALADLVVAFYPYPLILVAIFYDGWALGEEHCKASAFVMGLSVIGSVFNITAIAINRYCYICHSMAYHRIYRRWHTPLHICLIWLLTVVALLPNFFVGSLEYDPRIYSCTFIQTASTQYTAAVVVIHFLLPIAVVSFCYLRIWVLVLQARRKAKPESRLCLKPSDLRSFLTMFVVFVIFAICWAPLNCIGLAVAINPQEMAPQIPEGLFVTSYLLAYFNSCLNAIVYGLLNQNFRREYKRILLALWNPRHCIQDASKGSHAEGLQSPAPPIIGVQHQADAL

[8] = biological target: T8, 348 GPCRs (Homo sapiens, UniProt P25929); details: NPY1R (neuropeptide Y receptor Y1); 10µM, Favipiravir 100μM; read-out: % GPCR activation compared to TPA
T8 construct: expressed in transfected cells; host or cells: HEK293A
T8 sequence (P25929 1-384): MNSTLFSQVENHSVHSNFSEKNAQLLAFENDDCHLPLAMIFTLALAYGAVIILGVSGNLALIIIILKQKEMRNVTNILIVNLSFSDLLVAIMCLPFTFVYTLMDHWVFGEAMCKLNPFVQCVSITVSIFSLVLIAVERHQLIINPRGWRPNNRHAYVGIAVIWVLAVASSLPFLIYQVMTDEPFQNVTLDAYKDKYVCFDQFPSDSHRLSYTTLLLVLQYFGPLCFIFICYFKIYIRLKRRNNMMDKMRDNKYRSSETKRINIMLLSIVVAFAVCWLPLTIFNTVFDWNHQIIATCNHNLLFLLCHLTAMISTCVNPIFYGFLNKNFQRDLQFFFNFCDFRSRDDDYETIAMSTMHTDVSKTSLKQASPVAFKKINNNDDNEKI

[9] = biological target: T9, 348 GPCRs (Homo sapiens, UniProt Q9NQS5); details: GPR84 (G protein-coupled receptor 84); 10µM, Favipiravir 100μM; read-out: % GPCR activation compared to TPA
T9 construct: expressed in transfected cells; host or cells: HEK293A
T9 sequence (Q9NQS5 whole entry): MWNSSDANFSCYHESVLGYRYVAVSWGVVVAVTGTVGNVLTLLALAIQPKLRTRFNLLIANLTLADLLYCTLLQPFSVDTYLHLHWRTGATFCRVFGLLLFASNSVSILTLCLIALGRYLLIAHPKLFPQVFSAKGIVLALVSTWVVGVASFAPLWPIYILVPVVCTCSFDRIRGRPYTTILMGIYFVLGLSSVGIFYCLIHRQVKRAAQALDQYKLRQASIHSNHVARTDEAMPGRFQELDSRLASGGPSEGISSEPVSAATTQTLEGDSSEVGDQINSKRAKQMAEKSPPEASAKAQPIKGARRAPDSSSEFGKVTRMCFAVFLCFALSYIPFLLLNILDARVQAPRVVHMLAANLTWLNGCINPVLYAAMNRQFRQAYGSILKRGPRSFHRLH

[10] = biological target: T10, 348 GPCRs (Homo sapiens, UniProt O00590); details: CCBP2 (chemokine binding protein 2); 10µM, Favipiravir 100μM; read-out: % GPCR activation compared to TPA
T10 construct: expressed in transfected cells; host or cells: HEK293A
T10 sequence (O00590 1-384): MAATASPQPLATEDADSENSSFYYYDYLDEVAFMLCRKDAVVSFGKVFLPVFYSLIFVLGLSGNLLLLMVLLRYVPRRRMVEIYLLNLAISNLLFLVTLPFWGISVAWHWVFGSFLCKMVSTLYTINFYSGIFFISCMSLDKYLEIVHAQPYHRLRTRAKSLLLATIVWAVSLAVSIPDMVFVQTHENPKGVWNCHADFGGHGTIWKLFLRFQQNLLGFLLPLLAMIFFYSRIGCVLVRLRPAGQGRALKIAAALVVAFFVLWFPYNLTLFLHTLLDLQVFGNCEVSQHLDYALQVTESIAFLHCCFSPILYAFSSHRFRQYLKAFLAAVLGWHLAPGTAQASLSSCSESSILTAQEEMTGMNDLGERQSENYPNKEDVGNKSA

[11] = test system: 348 GPCRs
[12] = biological target: T11, 348 GPCRs (Homo sapiens, UniProt Q9BZJ8); details: GPCR GPR61 (G protein-coupled receptor 61), read-out: % GPCR activation compared to TPA
T11 construct: expressed in transfected cells; host or cells: HEK293A
T11 sequence (Q9BZJ8 whole entry): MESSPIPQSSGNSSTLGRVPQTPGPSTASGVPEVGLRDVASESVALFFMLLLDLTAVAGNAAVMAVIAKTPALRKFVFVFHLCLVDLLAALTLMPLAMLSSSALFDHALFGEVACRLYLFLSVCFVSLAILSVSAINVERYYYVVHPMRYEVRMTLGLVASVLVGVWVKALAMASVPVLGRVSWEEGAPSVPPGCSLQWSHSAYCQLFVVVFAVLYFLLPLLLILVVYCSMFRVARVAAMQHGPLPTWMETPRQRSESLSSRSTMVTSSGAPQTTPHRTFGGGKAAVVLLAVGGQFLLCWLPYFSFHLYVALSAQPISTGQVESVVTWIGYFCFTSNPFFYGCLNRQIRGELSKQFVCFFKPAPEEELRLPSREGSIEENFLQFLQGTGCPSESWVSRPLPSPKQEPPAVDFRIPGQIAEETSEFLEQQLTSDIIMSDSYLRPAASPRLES

[13] = biological target: 348 GPCRs (Homo sapiens, UniProt P30874); details: SSTR2 (somatostatin receptor 2); 10µM, Favipiravir 100μM; read-out: % GPCR activation compared to TPA
348 GPCRs (Homo sapiens, UniProt P30874), sequence (P30874 whole entry): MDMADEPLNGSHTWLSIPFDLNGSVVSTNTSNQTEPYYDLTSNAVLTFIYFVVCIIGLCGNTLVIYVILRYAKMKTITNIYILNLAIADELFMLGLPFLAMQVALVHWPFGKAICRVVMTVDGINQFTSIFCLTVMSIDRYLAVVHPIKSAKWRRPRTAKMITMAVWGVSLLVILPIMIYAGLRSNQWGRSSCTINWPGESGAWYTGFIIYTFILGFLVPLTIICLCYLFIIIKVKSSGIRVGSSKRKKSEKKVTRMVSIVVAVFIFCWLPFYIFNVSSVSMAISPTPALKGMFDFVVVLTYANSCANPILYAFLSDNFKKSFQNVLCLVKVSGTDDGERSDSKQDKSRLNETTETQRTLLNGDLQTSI

[14] = EP3 iso6 (prostaglandin E receptor 3 iso6), 10µM, Favipiravir 100μM
[15] = GPR17 short (G protein-coupled receptor 17 short), 10µM, Favipiravir 100μM

T1 sequence (P34972 whole entry): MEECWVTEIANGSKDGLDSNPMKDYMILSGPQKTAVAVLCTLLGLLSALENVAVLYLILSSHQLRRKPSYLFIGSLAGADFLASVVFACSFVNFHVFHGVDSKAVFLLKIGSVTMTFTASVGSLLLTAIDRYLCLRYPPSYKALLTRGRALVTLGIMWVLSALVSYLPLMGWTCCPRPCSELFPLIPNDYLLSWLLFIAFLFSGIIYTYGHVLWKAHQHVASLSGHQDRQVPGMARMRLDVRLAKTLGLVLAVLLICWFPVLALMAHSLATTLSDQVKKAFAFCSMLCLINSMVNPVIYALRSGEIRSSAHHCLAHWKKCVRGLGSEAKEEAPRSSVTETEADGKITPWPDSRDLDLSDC

activation at 100 µM [1] [%]	activation at 100 µM [5] [%]	activation at 100 µM [6] [%]	activation at 10 µM [7] [%]	activation at 100 µM [8] [%]	activation at 100 µM [9] [%]	activation at 100 µM [10] [%]	activation at 10 µM [13] [%]	Structure (SMILES)	% GPCR activation compared to TPA [11, 14] [%]	% GPCR activation compared to TPA [11, 15] [%]	further results
-0.772	6.76	1.65	-2.97	-0.88	5.15	-3.26	-0.998	N#C[C@@]1(c2ccc3c(N)ncnn23)O[C@H](CO)[C@@H](O)[C@H]1O [GS441524]	-0.4587	2.36	% GPCR activation compared to TPA ([2]; 10µM): -0.4592%; activation at 10 µM ([3]; 10µM): -5.06%; activation at 10 µM ([4]; 10µM): -4.34%; % GPCR activation compared to TPA ([11]; GPCR GPR68 long (G protein-coupled receptor 68 long), 10µM): 3.274%; % GPCR activation compared to TPA ([11]; GPCR LTB4R2B (leukotriene B4 receptor 2), 10µM): -0.1822%; % GPCR activation compared to TPA ([11]; GPCR P2Y13 short (purinergic receptor P2Y, G-protein coupled, 13 short), 10µM): 0.9471%; activation at 10 µM ([12]; 10µM): -3.94%
1.24	8.99	-0.296	-4.78	-1.15	-0.768	-6.14	-0.842	NC(=O)c1nc(F)cnc1O [favipiravir, 6-fluoro-3-hydroxy-2-pyrazinecarboxamide]	0.2801	-0.5013	% GPCR activation compared to TPA ([2]; 100μM): 0.4296%; activation at 100 µM ([3]; 100μM): -6.06%; activation at 100 µM ([4]; 100μM): -2.31%; % GPCR activation compared to TPA ([11]; GPCR GPR68 long (G protein-coupled receptor 68 long), 100μM): 5.02%; % GPCR activation compared to TPA ([11]; GPCR LTB4R2B (leukotriene B4 receptor 2), 100μM): -0.02753%; % GPCR activation compared to TPA ([11]; GPCR P2Y13 short (purinergic receptor P2Y, G-protein coupled, 13 short), 100μM): 1.698%; activation at 100 µM ([12]; 100μM): -3.47%
